Patent US9549977B2 (priority 2011, dated 2017)
Marks after values point to notes of the source that are not given here.

Key:
IL 1β [1] = assay: IL 1β transcription in peripheral blood leukocytes, real time PCR; type: cell-based, rainbow trout (Oncorhynchus mykiss)
Method: (§1) FIG. 4. Expression analysis by real time PCR of the in vitro effect of PACAP38 over the transcription of IL 1β in peripheral blood leukocytes (A) and head kidney (B) of naïve rainbow trout. The effects of PACAP administration at a concentration of 10^−10 M, 10^−9 M and 10^−8 M was evaluated at 48 h post-treatment. The experiment was repeated 4 times. The leukocyte cultures were treated in duplicates and the PCRs were performed in triplicate. Data are expressed as mean of relative expression of IL 1β related to the endogenous elongation factor EF1α±standard deviation (SD).
(§2) We used juvenile rainbow trout (O. mykiss) of approximately 50 g, free of the VHSV and IPNV. Fish (n=5) were anesthetized with methanesulfonic acid salt (Sigma, USA) and peripheral blood from the tail vein was taken aseptically of each fish and then the head kidney was collected. […]
(§3) The levels of IL 1β and IL 15 were evaluated 48 hours after treatment. […]
(§4) For cDNA synthesis was used a commercial kit that use the SuperScript III reverse transcriptase (Invitrogen). Finally, for quantitative PCRs (qPCRs) was used a commercial mixture of PCR: Power SYBR Green PCR Master Mix (Applied Biosystems). […] The results were expressed as 2^−ΔCt, where ΔCt is equal to the remainder of the Ct value of the target gene minus the Ct value of the normalized gene EF 1α.

IL 1β [2] = assay: IL 1β transcription in head kidney leukocytes, real time PCR; type: cell-based, rainbow trout (Oncorhynchus mykiss); conditions: 10^−10, 10^−9, 10^−8 M tested, 48 h
Method: as §1, §2, §3, §4

IL 15 [3] = assay: IL 15 expression in peripheral blood leukocytes, real time PCR; type: cell-based, rainbow trout (Oncorhynchus mykiss)
Method: (§5) FIG. 5. Expression analysis by real time PCR of the in vitro effect of PACAP38 over the transcription of IL 15 in peripheral blood leukocytes (A) and head kidney (B) of neïve rainbow trout. The effects of PACAP administration at a concentration of 10^−10 M, 10^−9 M and 10^−8 M was evaluated at 48 h post-treatment. The experiment was repeated 4 times. The leukocyte cultures were treated in duplicates and the PCRs were performed in triplicates. Data are expressed as the mean of the relative expression of IL 15 related to the endogenous elongation factor EF1α±standard deviation (SD). (*) p<0.05.
as §2, §3, §4

IL 15 [4] = assay: IL 15 expression in head kidney leukocytes, real time PCR; type: cell-based, rainbow trout (Oncorhynchus mykiss); conditions: 10^−9 M, 48 h, vs negative control
Method: as §5, §2, §3, §4

[5] = tested on: Ichthyophthirius multifiliis; assay: Survival of channel catfish immunized and challenged with live theronts of I. multifiliis; type: in vivo, channel catfish (Ictalurus punctatus); conditions: PACAP immersion baths 100 μg/L, 6 baths of 1 hour, versus immunized fish
Method: An experiment was conducted to evaluate the effect of PACAP administration, after immunization with ciliated parasite theronts I. multifiliis, on survival of channel catfish (I. punctatus). The vaccination and challenge procedure was performed as proposed by Wang and Dickerson ((2002) Clinical and Diagnostic Laboratory Immunology 9 (1), 176-181). Four experimental groups of 25 fish (12±5 g) each one were established:
Group 1: Fish immunized on days 1 and 35 with PBS.
Group 2: Fish immunized on day 1 with 8000 live theronts I. multifiliis and at day 35 with 10,000 living theronts parasite.
Group 3: Fish immunized on day 1 with 8000 live theronts I. multifiliis and at day 35 with 10,000 living theronts parasite. These fish also received by immersion baths the neuropeptide PACAP at a dose of 100 μg of PACAP/L of water. The treatment was performed for 1 hour, on alternate days, in the two weeks prior to challenge (six immersion baths).
Group 4: Fish immunized on day 1 with 8000 live theronts I. multifiliis and at day 35 with 10,000 living theronts parasite. These fish were also subjected to immersion baths for 1 hour without PACA, by a procedure similar to Group 3.
Prior to the immunizations fish were treated with formalin to remove existing ectoparasites. The fish were maintained at 23±2° C. and continuous water flow. At day 84, the fish were challenged with 15 000 theronts. […]

Caligus rogercresseyi = assay: Controlled challenge test with Caligus rogercresseyi in immunized Salmo salar
Method: In this experiment were established six experimental groups of 25 animals (average weight 80 g) each one:
Group 1: Injected IP with PBS
Group 2: Injected IP with PACAP38 at the dose of 1 μg/fish
Group 3: Injected IP with my32 at the dose of 3 μg/g of body weight (gbw)
Group 4: Co-administration by IP injection of my32 at 3 μg/gbw and PACAP at the dose of 1 μg/fish
Group 5: Fish injected IP with my32 at the dose of 3 μg/gbw and fed with 250 μg of PACAP/Kg of feed daily, for one week before and after de immunization with my32.
After 500 arbitrary thermal units, fish were adapted to seawater for two weeks. Subsequently, they were challenged with 2000±200 copepodites to each tank. […] Turnover and filtration was performed manually every 48 hours. At 24 days, fish were anesthetized and killed for parasite counting under a stereomicroscope.

PACAP38
transcription of IL 1β (relative expression to EF1α) (IL 1β [1]; 10^−9 M, 48 h, vs negative control, below the 10^−10 M level): stimulatory effect | IL 1β levels (relative expression to EF1α) (IL 1β [1]; 10^−10 M, 48 hours): increased | IL1β transcription (relative expression to EF1α) (IL 1β [2]): stimulatory effect only at a dose of 10^−9 M | expression of the IL 15 (relative to EF1α) (IL 15 [3]; 10^−9 M, 48 h): stimulatory effect | expression of the IL 15 (relative to EF1α) (IL 15 [3]; 10^−10 M, 48 h (highest values)): stimulatory effect | IL 15 expression levels (relative to EF1α) (IL 15 [4]): statistically higher than the negative control group | increase in survival of immunized fish simultaneously treated with PACAP [5]: 27% | Inhibition of the infestation (%) (Caligus rogercresseyi; 24 days post-challenge, (1 − T/C) × 100 versus placebo group): 22% | Number of parasites/fish (Caligus rogercresseyi; S. salar, 24 days post-challenge with C. rogercresseyi, PACAP 1 μg/fish IP or 250 μg/Kg feed, my32 3 μg/gbw IP): 29 ± 5^b
